Assays:
CB1 receptor = biological target: T1, CB1 receptor (Mus musculus, UniProt P47746); assay: Mouse electrically-stimulated isolated vas deferens bioassay (MVD); format: cell-based; conditions: decrease of electrically evoked twitch force, read-out: CB1 (MVD) % inh at 1.0 μM
T1 construct: Mouse vasa deferentia were dissected with capsular connective tissue intact and set up in 20 ml organ baths; from tissue; host or cells: mouse (Swiss white) isolated vas deferens
Protocol: Functional activity of the compounds was assayed using the mouse electrically-stimulated vas deferens bioassay, a measure of CB1 receptor function (24,25). […] CB2 functionality may be investigated using assays known to those skilled in the art; for example those described in U.S. Pat. No. 6,013,648.
Swiss white mice (35-40 g) were killed by exposure to 80% CO2 in O2 and exsanguination. Mouse vasa deferentia were dissected with capsular connective tissue intact and set up in 20 ml organ baths at 37° C. in Mg^2+-free physiological salt solution. The upper (epididymal) end was attached to an isometric force transducer (Grass FTO3C) and the lower (prostatic) end tied to a fixed support between two parallel platinum field electrodes (5 mm apart, 5 mm long). The tissue was initially stretched by 0.5 g force and allowed to equilibrate 10 min. The tissues were stimulated (Grass S88 stimulator) to contract using trains of electrical field stimulation of 3 pulses (4 Hz), 0.5 ms duration, 100 V (80% maximal voltage) every 20 s for 10 min. This electrical stimulation period was applied before and after both antagonist and agonist addition. Output from the transducer amplifier was recorded on a flat bed recorder (Gould BS 272, Cleveland, Ohio, U.S.A.). All drugs were dissolved in dimethyl sulfoxide (DMSO; Sigma, St Louis, Mo., U.S.A.) and allowed to equilibrate with the tissue for 30 min before the responses to field stimulation were assessed. Drug effects were measured as the percentage decrease of the pre-drug twitch force.

Sprague-Dawley rats [1] = assay: Neuropathic pain testing: L5/L6 spinal nerve ligation, tactile allodynia with von Frey hairs; format: in vivo; conditions: intraperitoneal injection, propylene glycol vehicle, rat
Excerpt: Production of a unilateral hind limb neuropathy in male Sprague-Dawley rats was achieved using the technique of L5 and L6 spinal nerve ligation, according to the method of Kim and Chung (1992). Animals were given one week to recover from surgery prior to testing for the development of […] pain.
The testing procedure involved the determination of tactile allodynia using von Frey hairs, which were applied sequentially to the plantar surface of the rat paw starting with 2 g of force and proceeding upwards to a maximum of 15.1 g of force or downwards to a minimum of 0.4 g force. The 15.1 g force was used to define the maximum possible effect (MPE) for this test of neuropathic pain. Once paw withdrawal occurred, the 50% withdrawal threshold was determined using the “up-down” method as published by Dixon (1980). Both hind paws were tested. Response to therapy as measured by tactile allodynia threshold was calculated using the percentage maximum possible effect (% MPE) according to the following equation: % MPE=100×([Measured value]−[Pre-treatment value])/([MPE]−[Pre-treatment value]).
Drugs were dissolved in a propylene glycol vehicle and administered via intraperitoneal injection.

Sprague-Dawley rats [2] = assay: Antinociceptive testing (tail flick / plantar test) after intrathecal or intravenous administration; format: in vivo; conditions: rat
Protocol: The following sequence protocol was used for the acute intrathecal administration to Sprague-Dawley rats. Each rat only underwent one cycle of the sequence protocol:
Intrathecal catheter placement was carried out as first described by Yaksh and Rudy (1976) The general thrust of the catheter placement involves the PE-10 catheter inserted into the subarachnoid space via the antlanto-occipital membrane (as the entry point) and threaded down to the lumber expansion of the spinal cord (spinal cord level L5/L6). The catheter tip is then exteriorised over the forehead. All animals are, assessed for normal motor function and behaviour post-surgery. […]
Drugs were administered in a 0.1 ml volume followed by 0.1 ml saline (0.9% sodium chloride solution; Baxter, Toongabbie, N.S.W., Australia) flush. Tail flick nociception was measured at 15, 30, and in the case of 0.1 mg/kg CP 55,940, 45 min after intravenous administration.
The antinociception tests were all conducted using the Plantar Test Instrument (Ugo Basile, Varese, Italy) which comprises a movable infra-red (IR) heat source, a glass pane onto which the 3-compartment rat enclosure is placed and a controller. […] The withdrawal latency is measured by the time difference between the activation of the IR heat source and physical withdrawal of the paw or tail from the stimulus. […]

T1 sequence (P47746 whole entry): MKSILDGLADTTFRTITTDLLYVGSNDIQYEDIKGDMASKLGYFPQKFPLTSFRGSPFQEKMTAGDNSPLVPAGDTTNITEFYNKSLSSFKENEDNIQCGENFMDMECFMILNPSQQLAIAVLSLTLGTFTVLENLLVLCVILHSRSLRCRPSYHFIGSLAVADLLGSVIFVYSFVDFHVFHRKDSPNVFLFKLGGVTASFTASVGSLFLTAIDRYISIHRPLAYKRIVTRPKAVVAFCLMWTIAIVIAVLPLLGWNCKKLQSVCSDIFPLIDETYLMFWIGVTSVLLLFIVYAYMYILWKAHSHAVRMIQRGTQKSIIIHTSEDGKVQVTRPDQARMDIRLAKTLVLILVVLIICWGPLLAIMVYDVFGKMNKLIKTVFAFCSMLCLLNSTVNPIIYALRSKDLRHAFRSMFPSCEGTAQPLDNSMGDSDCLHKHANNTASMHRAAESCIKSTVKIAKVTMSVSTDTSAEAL

c1ccc(Cc2noc(-c3cn(CCN4CCCC4)c4ccccc34)n2)cc1 [Compound 1, 3-(3-Benzyl-[1,2,4]-oxadiazol-5-yl)-1-[2-(pyrrolidin-1-yl)ethyl]-1H-indole]
inhibition at 1 µM (CB1 receptor): 80%
antinociceptive effect in model of neuropathic pain (Sprague-Dawley rats [1]): significant antinociceptive effect
antinociceptive effect (Sprague-Dawley rats [2]; i.t. route): provided an antinociceptive effect
antinociceptive effect (Sprague-Dawley rats [2]; i.v. route): provided an antinociceptive effect

From patent US6930118B2, “3-Oxadiazol-5-yl-1-aminoalkyl-1h-indole derivatives” (Amrad Operations Pty. Ltd., priority 2001, dated 2005)
